# Experimental data published in patent US9492437B2, “Otamixaban for treatment of elderly and renal impaired non-ST elevation myocardial infarction patients” (SANOFI, priority 2009, dated 2016).
# Legend:
# [1] = tested on: prothrombin fragments 1+2; settings: highest dose regimen; cited from earlier work
# [2] = subgroup pharmacokinetic analysis (concentration of otamixaban); assay type: in vivo, human; settings: dose 4 (0.140 mg/Kg/h)
# [3] = tested on: patients with Unstable angina/Non ST segment Elevation Myocardial infarction; assay: randomized, double-blind triple-dummy trial, efficacy (endpoint of the study: all-cause death and new myocardial infarction); assay type: in vivo, human
# Source text: The following results are based on a randomized, double-blind triple-dummy trial to compare otamixaban to Unfractionated Heparin+eptifibatide, in patients with Unstable angina/Non ST segment Elevation Myocardial infarction scheduled to undergo an early invasive strategy.
# Patient with non STE-segment elevation Acute Coronary Syndrome with the following symptoms: […]
# UFH: 60 IU/Kg as IV bolus ([…]) followed by an IV infusion of 12 U/Kg/h (max 1000 IU/h) to maintain a PTT at 1.5 to 2.0 times control and at the time of the PCI additional boluses needed if the ACT is not in the range of 200-250 seconds. NB: In order for the study to be blinded, all aPTTs and ACTs performed in order to adjust Drug B (UFH/placebo) dosing will be performed using an encrypted Hemochron Signature Elite machine (or as a back-up, a local device with a third-party unblinded healthcare professional).
# Eptifibatide: a single bolus of 180 mcg/kg followed by an infusion of 2 mcg/kg/min. In patients with CrCl<50 mL/min the infusion rate will be decreased to 1 mcg/kg/min.
# Primary endpoint: Adjudicated composite of all-cause death and new myocardial infarction (MI) within 7 days following randomization
# The events will be adjudicated by a blinded independent adjudication committee. Since the goal of treating acute ACS without persistent ST segment elevation is to prevent associated morbidity and mortality, death and myocardial infarction are considered to be the clinically most meaningful endpoints in therapeutic studies, whereas recurrent ischemia or refractory angina is of more uncertain clinical relevance (EMEA/CPCP/EWP/570/98; February 2008).
# The primary endpoint has been defined as the double clinical efficacy endpoint (all cause death and Myocardial Infarction based on centrally adjudicated data) that will be assessed at Day 7. Further estimation of this endpoint will be done at Day 30, Day 90 and Day 180 (end of the follow up) to check persistence of effect as recommended by the EMEA guideline (EMEA/CPCP/EWP/570/98; February 2008).
# Myocardial Infarction is considered to be a hard component of a combined efficacy endpoint for confirmatory clinical trials. The definition of Myocardial Infarction will be based on ACC/AHA, ESC and WHF consensus (J Am Coll Cardiol, 2007; 50:2173-2195; Eur Heart J, 2007, 28: 2525-2538): […]
# [4] = age 65 to 75 years, Ota. infusion 0.035 mg/Kg/h
# [5] = age 65 to 75 years, Ota. infusion 0.070 mg/Kg/h
# [6] = age 65 to 75 years, Ota. infusion 0.105 mg/Kg/h
# [7] = age 65 to 75 years, Ota. infusion 0.140 mg/Kg/h
# [8] = age 65 to 75 years, Ota. infusion 0.175 mg/Kg/h
# [9] = age <65 years, Ota. infusion 0.035 mg/Kg/h
# [10] = age <65 years, Ota. infusion 0.070 mg/Kg/h
# [11] = age <65 years, Ota. infusion 0.105 mg/Kg/h
# [12] = age <65 years, Ota. infusion 0.140 mg/Kg/h
# [13] = age <65 years, Ota. infusion 0.175 mg/Kg/h
# [14] = age older than 75 years, Ota. infusion 0.035 mg/Kg/h
# [15] = age older than 75 years, Ota. infusion 0.070 mg/Kg/h
# [16] = age older than 75 years, Ota. infusion 0.105 mg/Kg/h
# [17] = age older than 75 years, Ota. infusion 0.140 mg/Kg/h
# [18] = age older than 75 years, Ota. infusion 0.175 mg/Kg/h
# [19] = creatinine clearance 30 to 50 ml/min, Ota. infusion 0.070 mg/Kg/h
# [20] = creatinine clearance 30 to 50 ml/min, Ota. infusion 0.105 mg/Kg/h
# [21] = creatinine clearance 30 to 50 ml/min, Ota. infusion 0.140 mg/Kg/h
# [22] = creatinine clearance 30 to 50 ml/min, Ota. infusion 0.175 mg/Kg/h
# [23] = creatinine clearance 50 to 80 ml/min, Ota. infusion 0.035 mg/Kg/h
# [24] = creatinine clearance 50 to 80 ml/min, Ota. infusion 0.070 mg/Kg/h
# [25] = creatinine clearance 50 to 80 ml/min, Ota. infusion 0.105 mg/Kg/h
# [26] = creatinine clearance 50 to 80 ml/min, Ota. infusion 0.140 mg/Kg/h
# [27] = creatinine clearance 50 to 80 ml/min, Ota. infusion 0.175 mg/Kg/h
# [28] = creatinine clearance <30 ml/min, Ota. infusion 0.140 mg/Kg/h
# [29] = creatinine clearance more than 80 ml/min, Ota. infusion 0.035 mg/Kg/h
# [30] = creatinine clearance more than 80 ml/min, Ota. infusion 0.070 mg/Kg/h
# [31] = creatinine clearance more than 80 ml/min, Ota. infusion 0.105 mg/Kg/h
# [32] = creatinine clearance more than 80 ml/min, Ota. infusion 0.140 mg/Kg/h
# [33] = creatinine clearance more than 80 ml/min, Ota. infusion 0.175 mg/Kg/h
# [34] = dose arms from 0.105 to 0.175 mg/Kg/h (dose arm 3 to 5)
smiles,measurement,setting,value
"COC(=O)C(Cc1cccc(C(=N)N)c1)[C@@H](C)NC(=O)c1ccc(-c2cc[n+]([O-])cc2)cc1 (mixture of isomers) [Otamixaban, (2R,3R)-2-(3-Carbamimidoyl-benzyl)-3-[4-(1-oxy-pyridin-4-yl)benzoylamino]-butyric acid methyl ester]",reduction of prothrombin fragments 1+2 versus unfractionated heparin,[1],reduced prothrombin fragments 1+2 significantly more than unfractionated heparin
same,concentration of otamixaban in patients with renal impairment and in elderly patients,[2],higher concentration
same,patients who showed the endpoint of the study / patients in the group,[3]; [4],2/33
same,patients with endpoint in comparison with the whole number of patients in the group,[3]; [4],(6.1%)
same,patients who showed the endpoint of the study / patients in the group,[3]; [5],11/186
same,patients with endpoint in comparison with the whole number of patients in the group,[3]; [5],(5.9%)
same,patients who showed the endpoint of the study / patients in the group,[3]; [6],11/170
same,patients with endpoint in comparison with the whole number of patients in the group,[3]; [6],(6.5%)
same,patients who showed the endpoint of the study / patients in the group,[3]; [7],9/182
same,patients with endpoint in comparison with the whole number of patients in the group,[3]; [7],(4.9%)
same,patients who showed the endpoint of the study / patients in the group,[3]; [8],7/164
same,patients with endpoint in comparison with the whole number of patients in the group,[3]; [8],(4.3%)
same,patients who showed the endpoint of the study / patients in the group,[3]; [9],5/74
same,patients with endpoint in comparison with the whole number of patients in the group,[3]; [9],(6.8%)
same,patients who showed the endpoint of the study / patients in the group,[3]; [10],16/394
same,patients with endpoint in comparison with the whole number of patients in the group,[3]; [10],(4.1%)
same,patients who showed the endpoint of the study / patients in the group,[3]; [11],8/394
same,patients with endpoint in comparison with the whole number of patients in the group,[3]; [11],(2.0%)
same,patients who showed the endpoint of the study / patients in the group,[3]; [12],9/383
same,patients with endpoint in comparison with the whole number of patients in the group,[3]; [12],(2.3%)
same,patients who showed the endpoint of the study / patients in the group,[3]; [13],16/401
same,patients with endpoint in comparison with the whole number of patients in the group,[3]; [13],(4.0%)
same,patients who showed the endpoint of the study / patients in the group,[3]; [14],2/18
same,patients with endpoint in comparison with the whole number of patients in the group,[3]; [14],(11.1%)
same,patients who showed the endpoint of the study / patients in the group,[3]; [15],4/96
same,patients with endpoint in comparison with the whole number of patients in the group,[3]; [15],(4.2%)
same,patients who showed the endpoint of the study / patients in the group,[3]; [16],6/98
same,patients with endpoint in comparison with the whole number of patients in the group,[3]; [16],(6.1%)
same,patients who showed the endpoint of the study / patients in the group,[3]; [17],6/93
same,patients with endpoint in comparison with the whole number of patients in the group,[3]; [17],(6.5%)
same,patients who showed the endpoint of the study / patients in the group,[3]; [18],6/106
same,patients with endpoint in comparison with the whole number of patients in the group,[3]; [18],(5.7%)
same,patients who showed the endpoint of the study / patients in the group,"[3]; creatinine clearance 30 to 50 ml/min, Ota. infusion 0.035 mg/Kg/h",0/7
same,patients who showed the endpoint of the study / patients in the group,[3]; [19],5/54
same,patients with endpoint in comparison with the whole number of patients in the group,[3]; [19],(9.3%)
same,patients who showed the endpoint of the study / patients in the group,[3]; [20],8/46
same,patients with endpoint in comparison with the whole number of patients in the group,[3]; [20],(17.4%)
same,patients who showed the endpoint of the study / patients in the group,[3]; [21],4/46
same,patients with endpoint in comparison with the whole number of patients in the group,[3]; [21],(8.7%)
same,patients who showed the endpoint of the study / patients in the group,[3]; [22],3/48
same,patients with endpoint in comparison with the whole number of patients in the group,[3]; [22],(6.3%)
same,patients who showed the endpoint of the study / patients in the group,[3]; [23],5/29
same,patients with endpoint in comparison with the whole number of patients in the group,[3]; [23],(17.2%)
same,patients who showed the endpoint of the study / patients in the group,[3]; [24],9/188
same,patients with endpoint in comparison with the whole number of patients in the group,[3]; [24],(4.8%)
same,patients who showed the endpoint of the study / patients in the group,[3]; [25],5/189
same,patients with endpoint in comparison with the whole number of patients in the group,[3]; [25],(2.6%)
same,patients who showed the endpoint of the study / patients in the group,[3]; [26],6/192
same,patients with endpoint in comparison with the whole number of patients in the group,[3]; [26],(3.1%)
same,patients who showed the endpoint of the study / patients in the group,[3]; [27],8/178
same,patients with endpoint in comparison with the whole number of patients in the group,[3]; [27],(4.5%)
same,patients who showed the endpoint of the study / patients in the group,"[3]; creatinine clearance <30 ml/min, Ota. infusion 0.035 mg/Kg/h",0/2
same,patients who showed the endpoint of the study / patients in the group,"[3]; creatinine clearance <30 ml/min, Ota. infusion 0.070 mg/Kg/h",0/2
same,patients who showed the endpoint of the study / patients in the group,"[3]; creatinine clearance <30 ml/min, Ota. infusion 0.105 mg/Kg/h",0/0
same,patients who showed the endpoint of the study / patients in the group,[3]; [28],3/4
same,patients with endpoint in comparison with the whole number of patients in the group,[3]; [28],75.0%
same,patients who showed the endpoint of the study / patients in the group,"[3]; creatinine clearance <30 ml/min, Ota. infusion 0.175 mg/Kg/h",0/3
same,patients who showed the endpoint of the study / patients in the group,[3]; [29],3/79
same,patients with endpoint in comparison with the whole number of patients in the group,[3]; [29],(3.8%)
same,patients who showed the endpoint of the study / patients in the group,[3]; [30],14/382
same,patients with endpoint in comparison with the whole number of patients in the group,[3]; [30],(3.7%)
same,patients who showed the endpoint of the study / patients in the group,[3]; [31],10/378
same,patients with endpoint in comparison with the whole number of patients in the group,[3]; [31],(2.6%)
same,patients who showed the endpoint of the study / patients in the group,[3]; [32],9/372
same,patients with endpoint in comparison with the whole number of patients in the group,[3]; [32],(2.4%)
same,patients who showed the endpoint of the study / patients in the group,[3]; [33],14/392
same,patients with endpoint in comparison with the whole number of patients in the group,[3]; [33],(3.6%)
same,"subgroup analysis of clinical results (age, gender, creatinine clearance, body weight, management of the acute coronary syndrome)","[3]; demographic subgroups, baseline characteristics, invasive or medical management",consistency of the clinical results
same,anticoagulation based on rates of bailout and thrombotic complications,[3]; dose arms 0.035 mg/Kg/h and 0.070 mg/Kg/h (dose arms 1 and 2),inadequate anticoagulation
same,effect on urgent revascularization or need for bailout,[3]; [34],no demonstrable effect
same,rates of primary endpoint lower than UFH+Eptifibatide,[3]; [34],31-41%
